Assay results: patent US20240285785A1, “TARGETING SORTILIN” (priority 2022, published 2024)
Where a SMILES comes first, the peptide text is derived from it. [ ]: non-standard residue; d: D form. The star is where a group is joined. Dolaproine = CO[C@@H]([C@@H]1CCCN1)[C@@H](C)C(=O)O; Dil = CC[C@H](C)[C@H](NC)[C@@H](CC(=O)O)OC; X1 = C[C@@H](N*)[C@@H](O)c1ccccc1; NMeV = CN[C@H](C(=O)O)C(C)C

Columns and labels:
[1] = Murine serum stability assay; assay type: in vitro ADME, mouse (CD-1); conditions: male, CD-1, mouse, mouse serum, male CD-1 mouse serum, 37° C.; read-out: Murine serum stability assay, T1/2
Description: Serum was drawn from male CD-1 mice by Pharmidex. Lyophilized peptides were solubilized in DMSO and then further diluted into male mouse (CD-1) serum at 37° C. in duplicates. The reaction was incubated at 37° C. and samples extracted at 6 time points: 0, 0.16, 0.5, 1, 3, and 6 hrs. Acetonitrile (ACN) with internal standard (tolbutamide) was added to stop the incubation. Samples were centrifuged, and the supernatant was analyzed by HPLC-MS/MS for the parent compound.

MDA-MB-231 tumor cells = test: MDA-MB-231 murine xenograft efficacy model; assay type: in vivo, BALB/c Nude mice; conditions: for body weight loss: Example 8, PDC 3 mg/kg, free MMAE 0.6 mg/kg, i.v. QW×4
Description: Murine xenograft experiments were conducted at WuXi AppTec and/or Charles River Laboratories and the care and use of animals was conducted in accordance with the regulations of the Association for Assessment and Accreditation of Laboratory Animal Care (AAALAC). MDA-MB-231 tumor cells (ATCC, Manassas, VA, cat #HTB-26) were grown and maintained in L15 medium supplemented with 10% heat inactivated fetal bovine serum, 1% Antibiotic-Antimycotic, and L-glutamine (2 mM) at 37° C. in an atmosphere in 5% CO2, 95% air. BALB/c Nude, female, 6-8 weeks, weighing approximately 18-22 g were purchased from Vital River Laboratory Animal Technology Co., LTD. Mice were inoculated subcutaneously at the right flank with MDA-MB-231 tumor cells (e.g., triple negative breast cancer cells) (10×10^6) in 0.2 mL of PBS with Matrigel (1:1) for tumor development. Animals were randomized and treatment was started when the average tumor volume reached approximately 150-200 mm^3 for the efficacy study. Dosing volume was adjusted based on body weight and was administered at 10 ml/Kg. […] Free MMAE payload was also tested, and similarly dissolved in 25 mM Histidine 10% sucrose pH 7 and one or more of the following doses, 0.6, 0.06 mg/kg, were administered to the mice i.v. at a QW×4 schedule. Tumor sizes were measured twice weekly in two dimensions using a caliper, and the volume in mm^3 calculated using the formula: V=0.5 a×b^2, where a and b are the long and short diameters of the tumor, respectively. TGI was calculated for each group using the formula: TGI (%)=[1−(Ti−T0)/(Vi−V0)]×100; where Ti is the average tumor volume of a treatment group on a given day, T0 is the average tumor volume of the treatment group on the first day of treatment, Vi is the average tumor volume of the vehicle control group on the same day with Ti, and V0 is the average tumor volume of the vehicle group on the first day of treatment.

[2] = Murine hematotoxicity assay; assay type: in vivo, BALB/c mice; conditions: 3 mg/kg i.v. QW×4, compared to vehicle or MMAE treatment
Description: Murine hematotoxicity experiments were conducted at Charles River Laboratories and the care and use of animals was conducted in accordance with the regulations of the Association for Assessment and Accreditation of Laboratory Animal Care (AAALAC). Wild type BALB/c, female, 7-8 weeks, weighing approximately 18-22 g were randomized and dosed intravenously with control or test articles at a QW×4 schedule. Dosing volume was adjusted based on body weight and was administered at 10 mL/Kg. PDCs were dissolved in 25 mM Histidine 10% sucrose pH 7 and 3 mg/kg was administered. Free MMAE payload was also tested, and similarly dissolved in 25 mM Histidine 10% sucrose pH 7 and administered to the mice at a dose of […] by i.v. injection at a QW×4 schedule. 3 days following each dose, 150 μL of whole blood was collected via submandibular method and placed in K2 EDTA tubes stored on ice. Blood neutrophil counts were performed on the day of collection by IDEXX labs. Body weights were recorded twice a week until study endpoint.
As outlined in the material and methods of Example 1, wild type BALB/c, female, 7-8 weeks, weighing approximately 18-22 g were randomized and dosed intravenously with control or test articles at a QW×4 schedule. Dosing volume was adjusted based on body weight and was administered at 10 ml/Kg. […] Free MMAE payload was also tested, and similarly dissolved in 25 mM Histidine 10% sucrose pH 7 and administered to the mice at a dose of […] by i.v. injection at a QW×4 schedule. 3 days following each dose, 150 μL of whole blood was collected via submandibular method and placed in K2 EDTA tubes stored on ice. Blood neutrophil counts were performed on the day of collection by IDEXX labs. Body weights were recorded twice a week until study endpoint.

[3] = Dynamic light scattering (DLS) solubility/aggregation; assay type: physicochemical; conditions: working concentrations (250 nM, PBS, pH 7.4)
Description: Samples were spun down on a bench top centrifuge, 15 minutes, 15,000 rpm, room temperature, to pellet any aggregated peptide/dust before taking a measurement. Visual inspection of the tubes was used to identify if any large pellets were formed, which is indicative of large aggregates. […] The plate was then transferred and read on the DLS instrument (Wyatt Technology DynaPro Plate Reader III) at 25° C.

SORT1 = target: T1, SORT1 (Homo sapiens, UniProt Q99523); test: Direct binding in fluorescence polarization (FP), FAM-labeled peptides; conditions: binding to SORT1-Ag
T1 construct: Human SORT1 (78-755)-His (Acrobiosystems); His (C); purchased Acrobiosystems SON—H52H5
T1 sequence (Q99523 78-755): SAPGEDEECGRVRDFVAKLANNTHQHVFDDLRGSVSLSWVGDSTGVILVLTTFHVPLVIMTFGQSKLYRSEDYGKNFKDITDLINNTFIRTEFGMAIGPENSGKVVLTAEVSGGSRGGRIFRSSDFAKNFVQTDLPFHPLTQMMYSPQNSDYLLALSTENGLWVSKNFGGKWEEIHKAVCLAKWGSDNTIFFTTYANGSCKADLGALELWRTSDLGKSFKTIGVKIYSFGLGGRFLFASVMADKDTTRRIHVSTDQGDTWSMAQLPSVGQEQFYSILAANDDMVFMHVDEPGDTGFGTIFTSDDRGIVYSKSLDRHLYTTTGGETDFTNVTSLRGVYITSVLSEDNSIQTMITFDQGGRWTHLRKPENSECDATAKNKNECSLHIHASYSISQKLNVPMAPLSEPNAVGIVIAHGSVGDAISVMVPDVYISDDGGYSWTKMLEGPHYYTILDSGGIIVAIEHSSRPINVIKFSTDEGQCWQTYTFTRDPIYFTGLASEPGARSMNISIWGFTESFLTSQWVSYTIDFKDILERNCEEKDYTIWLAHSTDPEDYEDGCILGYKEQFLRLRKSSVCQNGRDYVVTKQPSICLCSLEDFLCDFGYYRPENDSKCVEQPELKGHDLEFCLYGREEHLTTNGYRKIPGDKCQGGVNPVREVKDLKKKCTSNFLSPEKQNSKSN
Description: Peptides were dissolved into stock solutions in water, then brought up to final concentrations in 1×PBS, pH 7.4 and tested in DLS and CD (methods above) to ensure the peptides were soluble. Peptide concentrations were determined by quantifying the dye using the nanodrop and dye specific extinction coefficient at a specific wavelength. For FAM labeled dyes, the extinction coefficient 83000 cm^−1 M^−1 was used.
FAM labeled peptides were diluted to 1 μM in FP buffer (1×PBS, pH 7.4, 0.1% Tween-20) and serially diluted two-fold for a 12-point series to determine concentration at which the fluorescence intensity was 10,000 RFU and the polarization of the peptide was consistent. A 10× working solution would thus be 10× the concentration of FAM labeled peptide that satisfied the above criteria. […]
A 10× working solution of FAM-labeled peptides was prepared in the FP buffer (1×PBS, pH 7.4, 0.1% Tween-20). […] The 384-well plate was then centrifuged 1 min, 4000 rpm and fluorescence and polarization of dye measured on a Biotek Synergy Neo2 plate reader using the following settings (Excitation 485/20, Emission 528/20, Top read, Gain: 75, Light source: Xenon Flash, Lamp Energy: Low, Standard Dynamic range, Read speed: Normal, Delay: 0 msec, Measurements/Data Point: 10, Read Height: 9 mm). […]

[4] = Maximum tolerated dose (MTD) study; assay type: in vivo, BALB/c Nude mice; conditions: 10 mg/kg single i.v. dose
Description: BALB/c Nude mice, female, 6-8 weeks, weighing approximately 18-22 g were purchased from the Shanghai SLAC Laboratory Animal Co., LTD. MTD studies were conducted at WuXi AppTec and the care and use of animals was conducted in accordance with the regulations of the Association for Assessment and Accreditation of Laboratory Animal Care (AAALAC). Two MTD studies were performed (a) a low dose study with doses ranging from 0.1, 0.5, 1 and 3 mg/kg and (b) a high dose study with doses ranging from 3, 5, 10 mg/kg. Dosing volume was determined based on body weight (10 ul/g) and PDCs were dissolved in 25 mM Histidine 10% sucrose pH 7 and administered i.v. at a single dose at day 0. The treatment and observation were conducted up to 7 days and MTD was defined by ≥20% body weight loss. Body weights were measured daily, death and observed clinical signs were recorded.
Doses of 3, 5, and 10 mg/kg were administered. MTD was defined by ≥20% body weight loss and body weight measured daily.

CCCC[C@@H]1NC(=O)[C@H](CCCNC(=N)N)NC(=O)[C@H](CCCNC(=N)N)NC(=O)[C@H](CC(N)=O)NC(=O)[C@H](CCC(=O)O)NC(=O)[C@@H](NC(=O)[C@H](Cc2c[nH]c3ccccc23)NC(=O)[C@H](CCCNC(=N)N)NC(C)=O)CSSC[C@@H](C(=O)N[C@@H](CCCNC(=N)N)C(=O)N[C@@H](CCC(N)=O)C(=O)N[C@H](C(=O)N[C@@H](CC(C)(C)C)C(=O)O)C(C)(C)C)NC(=O)[C@H]([C@@H](C)O)NC(=O)[C@H](Cc2ccccc2)NC1=O [Arb_cyclic_G23, RWCENRR(Nle)FTCRQ(B13)(F02)]
half-life [1]: 38.1 min

CCCC[C@@H]1NC(=O)[C@H](CCCNC(=N)N)NC(=O)[C@H](CCCCNC(=O)CN(C)C(=O)CN(C)C(=O)CN(C)C(=O)CN(C)C(=O)CCNC(=O)CCCC(=O)N[C@H](C(=O)N[C@@H](CCCNC(N)=O)C(=O)Nc2ccc(COC(=O)N(C)[C@H](C(=O)N[C@H](C(=O)N(C)[C@@H]([C@@H](C)CC)[C@@H](CC(=O)N3CCC[C@H]3[C@H](OC)[C@@H](C)C(=O)N[C@H](C)[C@@H](O)c3ccccc3)OC)C(C)C)C(C)C)cc2)C(C)C)NC(=O)[C@H](CC(N)=O)NC(=O)[C@H](CCC(=O)O)NC(=O)[C@@H](NC(=O)[C@H](Cc2c[nH]c3ccccc23)NC(=O)[C@H](CCCNC(=N)N)NC(C)=O)CSSC[C@@H](C(=O)N[C@@H](CCCNC(=N)N)C(=O)N[C@@H](CCC(N)=O)C(=O)N[C@H](C(=O)N[C@@H](CC(C)(C)C)C(=O)O)C(C)(C)C)NC(=O)[C@H]([C@@H](C)O)NC(=O)[C@H](Cc2ccccc2)NC1=O [Arb_cyclic_G23-PDC]
tumor growth inhibited relative to vehicle (MDA-MB-231 tumor cells; 3 mg/kg i.v. QW×4, day 22 (Example 8)): 68% | body weight loss (MDA-MB-231 tumor cells): body weight loss tracked each other | blood neutrophil counts [2]: reduced neutrophil counts

CC[C@H](C)[C@@H]([C@@H](CC(=O)N1CCC[C@H]1[C@H](OC)[C@@H](C)C(=O)N[C@H](C)[C@@H](O)c1ccccc1)OC)N(C)C(=O)[C@@H](NC(=O)[C@@H](NC)C(C)C)C(C)C [MMAE, Monomethyl auristatin E, reference compound] (H-[NMeV]V[Dil][Dolaproine]-X1)
body weight variation (MDA-MB-231 tumor cells; Example 6, PDC 3, 1, 0.3 mg/kg, free MMAE at equivalency to 3 mg/kg PDC): body weight fluctuations corresponding to treatment times | body weight loss (MDA-MB-231 tumor cells): body weight fluctuations corresponding to treatment times

CC(C)C[C@H](NC(=O)[C@H](CCCNC(=N)N)NC(=O)[C@H](CC(C)C)NC(=O)[C@H](C)NC(=O)[C@H](CC(C)C)NC(=O)[C@H](CCCNC(=N)N)NC(=O)[C@H](CCC(N)=O)NC(=O)[C@H](CC(C)C)NC(=O)[C@H](C)NC(=O)[C@@H]1CCCN1C(=O)[C@H](Cc1c[nH]c2ccccc12)NC(=O)[C@@H]1CCCN1C(=O)[C@H](C)NC(=O)[C@H](CCCNC(=N)N)NC(=O)[C@@H]1CCCN1C(=O)[C@H](CC(=O)O)NC(=O)[C@@H](N)CC(=O)O)C(=O)O [PRGN_RL]
solubility (DLS) [3]: good solubility | poorer affinity than the WT sequence (PRGN_WT) (SORT1): ~7 ×

CC[C@H](C)[C@@H]([C@@H](CC(=O)N1CCC[C@H]1[C@H](OC)[C@@H](C)C(=O)N[C@H](C)[C@@H](O)c1ccccc1)OC)N(C)C(=O)[C@@H](NC(=O)[C@H](C(C)C)N(C)C(=O)OCc1ccc(NC(=O)[C@H](CCCNC(N)=O)NC(=O)[C@@H](NC(=O)CCCC(=O)NCCC(=O)N(C)CC(=O)N(C)CC(=O)N(C)CC(=O)N(C)CC(=O)N[C@@H](CC(=O)O)C(=O)N[C@@H](CC(=O)O)C(=O)N2CCC[C@H]2C(=O)N[C@@H](CCCNC(=N)N)C(=O)N[C@@H](C)C(=O)N2CCC[C@H]2C(=O)N[C@@H](Cc2c[nH]c3ccccc23)C(=O)N2CCC[C@H]2C(=O)N[C@@H](C)C(=O)N[C@@H](CC(C)C)C(=O)N[C@@H](CCC(N)=O)C(=O)N[C@@H](CCCNC(=N)N)C(=O)N[C@@H](CC(C)C)C(=O)N[C@@H](C)C(=O)N[C@@H](CC(C)C)C(=O)N[C@@H](CCCNC(=N)N)C(=O)N[C@@H](CC(C)C)C(=O)O)C(C)C)cc1)C(C)C [PRGN_RL_PDC]
toxicity [4]: mild toxicity

CC(C)C[C@H](NC(=O)[C@H](CC(C)C)NC(=O)[C@H](CCC(N)=O)NC(=O)[C@H](CCCNC(=N)N)NC(=O)[C@H](CC(C)C)NC(=O)[C@H](C)NC(=O)[C@@H]1CCCN1C(=O)[C@H](CC(=O)O)NC(=O)[C@H](CCCNC(=N)N)NC(=O)[C@H](CC(C)C)NC(=O)[C@@H]1CCCN1C(=O)[C@H](C)NC(=O)[C@H](CC(=O)O)NC(=O)[C@H](Cc1c[nH]c2ccccc12)NC(=O)[C@H](CCCNC(=N)N)NC(=O)[C@@H]1CCCN1C(=O)[C@H](C)N)C(=O)O [PRGN_WT]
solubility (DLS) [3]: good solubility
